From article PMC11345830, “Exploration of Hydrazide-Based HDAC8 PROTACs for the Treatment of Hematological Malignancies and Solid Tumors” (Journal of Medicinal Chemistry, 2024)

Tests used:
Type in all cases: cell-based
[1] = target: T1, HDAC6 (Homo sapiens, UniProt Q9UBN7); assay: HDAC6 level in Jurkat cells, Western blot; parameters: endogenous in cells; host or cells: Jurkat; settings: 6 h
T1 sequence (Q9UBN7 1-1215): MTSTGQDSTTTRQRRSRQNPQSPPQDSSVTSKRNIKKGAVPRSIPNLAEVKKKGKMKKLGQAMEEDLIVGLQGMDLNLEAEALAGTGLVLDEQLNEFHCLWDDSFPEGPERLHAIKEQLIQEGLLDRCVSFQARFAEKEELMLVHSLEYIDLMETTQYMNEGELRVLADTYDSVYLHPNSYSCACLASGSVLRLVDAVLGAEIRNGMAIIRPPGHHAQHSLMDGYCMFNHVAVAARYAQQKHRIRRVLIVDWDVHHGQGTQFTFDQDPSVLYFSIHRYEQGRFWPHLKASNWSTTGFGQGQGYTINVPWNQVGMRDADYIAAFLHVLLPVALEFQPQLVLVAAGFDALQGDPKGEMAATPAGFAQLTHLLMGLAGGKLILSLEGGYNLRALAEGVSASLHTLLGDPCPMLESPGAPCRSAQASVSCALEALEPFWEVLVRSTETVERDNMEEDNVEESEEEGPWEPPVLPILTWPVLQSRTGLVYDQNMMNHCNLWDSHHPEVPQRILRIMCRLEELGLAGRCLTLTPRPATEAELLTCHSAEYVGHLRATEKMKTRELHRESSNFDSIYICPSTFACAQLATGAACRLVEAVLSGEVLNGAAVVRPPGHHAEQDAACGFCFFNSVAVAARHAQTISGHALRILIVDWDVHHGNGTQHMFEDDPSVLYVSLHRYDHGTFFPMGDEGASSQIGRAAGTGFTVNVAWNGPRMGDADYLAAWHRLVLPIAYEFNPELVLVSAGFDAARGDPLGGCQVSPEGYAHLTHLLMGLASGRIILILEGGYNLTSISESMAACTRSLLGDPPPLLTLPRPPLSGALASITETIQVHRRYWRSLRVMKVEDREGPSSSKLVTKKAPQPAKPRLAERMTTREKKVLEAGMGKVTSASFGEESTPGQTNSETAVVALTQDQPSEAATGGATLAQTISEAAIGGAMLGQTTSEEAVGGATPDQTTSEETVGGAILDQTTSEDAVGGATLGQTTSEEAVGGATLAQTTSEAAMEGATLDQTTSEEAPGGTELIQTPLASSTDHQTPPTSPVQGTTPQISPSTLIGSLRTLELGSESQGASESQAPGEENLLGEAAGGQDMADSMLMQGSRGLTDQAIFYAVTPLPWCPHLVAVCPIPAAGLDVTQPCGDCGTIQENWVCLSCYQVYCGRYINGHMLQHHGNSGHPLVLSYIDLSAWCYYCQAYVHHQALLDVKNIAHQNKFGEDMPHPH

[2] = target: T2, HDAC7 (Homo sapiens, UniProt Q8WUI4); assay: HDAC7 level in Jurkat cells, Western blot; settings: 6 h
T2 construct: endogenous in cells; host or cells: Jurkat
T2 sequence (Q8WUI4 1-952): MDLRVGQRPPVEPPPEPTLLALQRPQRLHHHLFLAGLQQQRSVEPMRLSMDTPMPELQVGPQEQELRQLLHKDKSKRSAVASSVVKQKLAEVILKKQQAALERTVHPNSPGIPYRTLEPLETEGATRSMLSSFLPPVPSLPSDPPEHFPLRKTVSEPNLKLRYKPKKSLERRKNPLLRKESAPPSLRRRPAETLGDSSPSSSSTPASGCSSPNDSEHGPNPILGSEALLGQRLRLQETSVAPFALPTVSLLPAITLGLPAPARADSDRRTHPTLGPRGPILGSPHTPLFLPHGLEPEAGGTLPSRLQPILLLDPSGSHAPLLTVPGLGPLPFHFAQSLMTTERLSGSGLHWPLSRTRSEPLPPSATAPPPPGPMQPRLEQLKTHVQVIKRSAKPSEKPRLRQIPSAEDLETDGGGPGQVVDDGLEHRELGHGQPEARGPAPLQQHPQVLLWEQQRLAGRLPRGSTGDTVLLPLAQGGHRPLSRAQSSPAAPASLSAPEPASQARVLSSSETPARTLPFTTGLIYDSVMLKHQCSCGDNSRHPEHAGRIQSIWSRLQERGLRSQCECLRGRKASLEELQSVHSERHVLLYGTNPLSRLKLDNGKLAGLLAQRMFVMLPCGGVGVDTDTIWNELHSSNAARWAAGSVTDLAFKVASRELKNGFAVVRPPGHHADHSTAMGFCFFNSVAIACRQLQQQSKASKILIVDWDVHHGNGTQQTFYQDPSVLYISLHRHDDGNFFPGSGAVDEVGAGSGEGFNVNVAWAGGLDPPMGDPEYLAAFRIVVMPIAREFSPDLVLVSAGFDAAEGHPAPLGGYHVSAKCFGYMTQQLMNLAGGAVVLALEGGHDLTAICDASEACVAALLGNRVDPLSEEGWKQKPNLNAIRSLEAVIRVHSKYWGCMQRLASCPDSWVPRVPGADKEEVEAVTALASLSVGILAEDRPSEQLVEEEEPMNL

[3] = target: T3, IKZF1 (Homo sapiens, UniProt Q13422); assay: IKZF1 level in Jurkat cells, Western blot; settings: 6 h
T3 construct: endogenous in cells; host or cells: Jurkat
T3 sequence (Q13422 whole entry): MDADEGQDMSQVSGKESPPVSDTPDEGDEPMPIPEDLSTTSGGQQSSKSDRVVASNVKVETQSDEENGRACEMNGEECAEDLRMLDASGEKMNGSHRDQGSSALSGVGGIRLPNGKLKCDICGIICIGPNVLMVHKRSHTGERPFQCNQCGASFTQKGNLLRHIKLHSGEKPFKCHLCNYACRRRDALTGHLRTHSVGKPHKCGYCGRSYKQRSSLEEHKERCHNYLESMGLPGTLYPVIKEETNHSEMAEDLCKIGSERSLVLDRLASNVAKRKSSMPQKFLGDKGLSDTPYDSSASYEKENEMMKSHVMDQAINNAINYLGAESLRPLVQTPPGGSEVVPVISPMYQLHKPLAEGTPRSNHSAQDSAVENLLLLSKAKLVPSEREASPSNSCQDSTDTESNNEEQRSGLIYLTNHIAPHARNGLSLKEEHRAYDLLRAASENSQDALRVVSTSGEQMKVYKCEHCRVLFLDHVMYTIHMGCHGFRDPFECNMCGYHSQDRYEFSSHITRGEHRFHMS

[4] = test system: HCT116 cells; assay: Cell cycle analysis, HCT116; settings: 48 h, control group 23.0%
Description: Jurkat cells (5 × 10^5) and HCT116 cells (3 × 10^5) were seeded on 6-well plates. The next day, cells were treated with indicated concentrations of compounds for 48 h. Cells were harvested after incubation, washed twice in cold PBS, centrifuged, and stained with a solution containing 20 μg/mL of Propidium iodide (PI) and 0.1% (v/v) Triton-X100 for 15 min at room temperature, followed by detection with NovoCyte Quanteon Flow Cytometer (Agilent Technologies, CA, USA).

[5] = target: T1, HDAC6; assay: HDAC6 level in HCT116 cells, Western blot; parameters: endogenous in cells; host or cells: HCT116; settings: 6 h
[6] = test system: Jurkat cells; assay: Apoptosis assay (Annexin V-FITC/PI flow cytometry), Jurkat; settings: 24 and 48 h
Description: The cell apoptosis assay was performed using eBioscience Annexin V-FITC/PI Apoptosis Detection Kit (Thermo Fisher Scientific, Carlsbad, CA, USA). Jurkat cells (5 × 10^5) and HCT116 cells (3 × 10^5) were treated with different concentrations of test compounds for 24 or 48 h. Cells were harvested after incubation, washed twice in cold PBS, centrifuged, and resuspended in 1X annexin-binding buffer. According to the manufacturer’s instructions, cells were incubated with Annexin V and Propidium iodide (PI) sequentially. All samples were analyzed by NovoCyte Quanteon Flow Cytometer (Agilent Technologies, CA, USA).

[7] = test system: acetyl-histone H3 (Ac-HH3); assay: Ac-HH3 level in HCT116 cells, Western blot; settings: 6 h

CCCCCCNNC(=O)c1ccc(CNC(=O)CN2CCC(c3ccc(NC4CCC(=O)NC4=O)cc3)CC2)cc1 (stereo not shown) [Z16, 2-(4-(4-((2,6-Dioxopiperidin-3-yl)amino)phenyl)piperidin-1-yl)-N-(4-(2-hexylhydrazine-1-carbonyl)benzyl)acetamide]
HDAC6 degradation (in words) [1]: no obvious
HDAC7 degradation (in words) [2]: no obvious
intracellular level of IKZF1 (in words) [3]: did not significantly affect
proportion of cells at G2/M phase ([4]; 0.13 μM): 24.1%
proportion of cells at G2/M phase ([4]; 0.37 μM): 26.4%
proportion of cells at G2/M phase ([4]; 1.1 μM): 26.2%
proportion of cells at G2/M phase ([4]; 3.3 μM): 38.8%
impact on HDAC6 (in words) [5]: without significant impact
induction of apoptosis (in words) [6]: neither Z16 nor SAHA could effectively induce apoptosis
concentration at which increased acetylation of histone H3 started [7]: 40 nM
